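Where inhibition never reached the appropriate level, the endpoint shown equals the highest concentration tested. Otherwise, values were interpolated linearly from a five-concentration, 48-hour dose response in 96-well plates. Abbreviation: GI50, concentration required for 50% inhibition of growth. TGI: concentration producing complete growth inhibition.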
Legend:
Experiment in all cases: DTP human tumour cell line panel, 48 h
[1] = tested on: ACHN renal
[2] = tested on: EKVX NSCLC
[3] = tested on: HCT-15 colon
[4] = tested on: LOX IMVI melanoma
[5] = tested on: OVCAR-5 ovarian
[6] = tested on: RPMI-8226 leukemia
[7] = tested on: SK-MEL-5 melanoma
[8] = tested on: U251 CNS
[9] = tested on: UACC-257 melanoma
[10] = tested on: UACC-62 melanoma

Compound | TGI [1] | TGI [2] | TGI [3] | TGI [4] | TGI [5] | TGI [6] | TGI [7] | TGI [8] | TGI [9] | TGI [10] | GI50 [1] | GI50 [2] | GI50 [3] | GI50 [4] | GI50 [5] | GI50 [6] | GI50 [7] | GI50 [8] | GI50 [9] | GI50 [10]
C/C(=N\NC(=O)CC#N)C(CN1CCCCC1)C(c1ccccc1)c1c(O)c2ccccc2oc1=O (centres undefined) | > 100 µM | > 100 µM | > 100 µM | 40.1 µM | > 100 µM | > 100 µM | > 100 µM | > 100 µM | > 100 µM | > 100 µM | – | – | – | – | – | – | – | – | – | –
CCn1c(-c2c(Cl)cc(O)cc2Cl)cc2c(Cl)cc(O)cc21 | 16.9 µM | 58.5 µM | 12.8 µM | 32.8 µM | 65 µM | 87.6 µM | 12.5 µM | 17 µM | 26 µM | 32.8 µM | – | – | – | – | – | – | – | – | – | –
O=C1/C(=C/c2ccc(F)c(F)c2)CN(C(=O)C(Cl)Cl)C/C1=C\c1ccc(F)c(F)c1 | 0.249 µM | 0.506 µM | 0.164 µM | 0.0549 µM | 0.421 µM | 0.0871 µM | 0.38 µM | 0.131 µM | 0.888 µM | 0.365 µM | 0.0776 µM | 0.188 µM | 0.0303 µM | 0.0222 µM | 0.167 µM | 0.0186 µM | 0.19 µM | 0.0331 µM | 0.259 µM | 0.172 µM
Cc1cc2c(cc1C)[n+](=O)c(C(=O)/C=C/c1ccc3c(c1)OCO3)c(C)n2[O-] | > 75.8 µM | > 100 µM | > 100 µM | > 85.2 µM | > 100 µM | > 100 µM | > 100 µM | 62.7 µM | > 100 µM | 59.5 µM | – | – | – | – | – | – | – | – | – | –
O=C1C=CC(=O)C2C1Cc1ccccc1C2c1ccccc1 (centres undefined) | > 100 µM | 72.9 µM | > 100 µM | > 100 µM | > 100 µM | 67.6 µM | > 100 µM | 33 µM | 70.2 µM | > 100 µM | – | – | – | – | – | – | – | – | – | –
O=S(=O)(c1ccccc1)c1nccs1 | > 100 µM | > 100 µM | > 100 µM | > 100 µM | > 100 µM | > 100 µM | > 100 µM | > 100 µM | > 100 µM | > 100 µM | – | – | – | – | – | – | – | – | – | –
CCC#CC[C@H](O)C/C=C1/C(=O)C=C[C@@H]1C/C=C\CCCC(=O)OC | 2.07 µM | 7.73 µM | 5.09 µM | 1.54 µM | 7.88 µM | 2.86 µM | 1.46 µM | 1.99 µM | 2.43 µM | 2.82 µM | 0.947 µM | 1.76 µM | 1.17 µM | 0.754 µM | 1.81 µM | 0.657 µM | 0.767 µM | 0.695 µM | 0.856 µM | 1.04 µM
C#CCN(N=O)C(=O)NCCCCC(NC(=O)OCc1ccccc1)C(=O)OCc1ccccc1 (centres undefined) | > 100 µM | > 100 µM | > 100 µM | 28 µM | > 100 µM | > 100 µM | > 100 µM | > 100 µM | > 100 µM | > 100 µM | – | – | – | – | – | – | – | – | – | –
CCC[CH2][Sn]([CH2]CCC)([CH2]CCC)[O]C(=O)C(OC(C)=O)c1ccccc1 (centres undefined) | 0.274 µM | 0.21 µM | 0.28 µM | 0.23 µM | 0.222 µM | 0.298 µM | 0.28 µM | 0.27 µM | 0.284 µM | 0.255 µM | 0.143 µM | 0.0528 µM | 0.144 µM | 0.107 µM | 0.086 µM | 0.0212 µM | 0.147 µM | 0.14 µM | 0.149 µM | 0.126 µM
CC1(C)OC2CC3COC(=O)C3CC2O1 (centres undefined) | > 100 µM | > 100 µM | > 100 µM | > 100 µM | > 100 µM | > 100 µM | > 100 µM | > 100 µM | > 100 µM | > 100 µM | – | – | – | – | – | – | – | – | – | –
Nc1ncn(C2OC(COP(=O)(O)O)C(O)C2O)c(=O)n1 (centres undefined) | > 100 µM | > 79 µM | > 100 µM | > 100 µM | > 100 µM | > 100 µM | > 100 µM | > 100 µM | > 100 µM | > 100 µM | – | – | – | – | – | – | – | – | – | –
CCOP(=O)(OCC)/C(C#N)=C\c1ccsc1 | > 100 µM | > 100 µM | > 100 µM | > 100 µM | > 100 µM | > 100 µM | > 100 µM | > 100 µM | > 100 µM | > 100 µM | – | – | – | – | – | – | – | – | – | –
O=C(Nc1cc(Cl)ccc1Cl)c1cc2cccc(Br)c2oc1=O | > 100 µM | > 100 µM | > 100 µM | > 100 µM | – | > 100 µM | > 100 µM | > 100 µM | > 100 µM | > 100 µM | – | – | – | – | – | – | – | – | – | –

From PubChem BioAssay (NCI)
